Where a chain is given by its changes, count along the chain named. Values joined by “and” are separate entries in the source; they are usually repeats but may differ in a detail not shown here. Equal entries are not always repeated. “Also recorded” adds a separate entry of the source. Where two headings read alike, the source gives them in different places.
How the values were obtained:
DrOTOP1 G130W = molecular target: T1, DrOTOP1 G130W (Danio rerio, UniProt Q7ZWK8, G130W); assay: Whole-cell patch-clamp, inhibition of acid-evoked currents, DrOTOP1 G130W (outer site); assay type: cell-based, zebrafish (Danio rerio); conditions: DrOTOP1 G130W
T1 construct: A previously generated codon-optimized full-length DrOTOP1[8]; (UniProt: Q7ZWK8) construct; expressed in transfected cells; host or cells: HEK-293 (CRL-1573, ATCC)
T1 sequence (Q7ZWK8 1-586 G130W): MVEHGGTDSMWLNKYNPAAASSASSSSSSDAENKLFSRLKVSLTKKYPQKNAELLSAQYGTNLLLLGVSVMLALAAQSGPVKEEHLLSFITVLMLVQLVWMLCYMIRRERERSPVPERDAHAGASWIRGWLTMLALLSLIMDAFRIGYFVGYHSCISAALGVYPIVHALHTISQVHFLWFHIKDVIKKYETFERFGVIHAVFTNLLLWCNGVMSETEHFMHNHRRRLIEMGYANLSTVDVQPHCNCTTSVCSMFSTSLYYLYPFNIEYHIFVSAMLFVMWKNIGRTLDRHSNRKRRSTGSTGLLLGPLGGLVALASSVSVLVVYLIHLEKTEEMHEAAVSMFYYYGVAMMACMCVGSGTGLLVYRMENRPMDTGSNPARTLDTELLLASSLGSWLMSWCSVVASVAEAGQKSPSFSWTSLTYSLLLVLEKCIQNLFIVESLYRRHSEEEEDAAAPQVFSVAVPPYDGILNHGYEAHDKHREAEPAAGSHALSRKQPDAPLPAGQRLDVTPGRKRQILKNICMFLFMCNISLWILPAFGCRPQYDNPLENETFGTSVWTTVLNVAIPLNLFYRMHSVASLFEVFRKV
From the text: To functionally test the significance of the two binding sites identified by cryo-EM, we generated point mutations of DrOTOP1 using the binding poses and conformational changes observed in DrOTOP1_C2.2 to guide our mutations. As per the binding pose that best fits our cryo-EM density, C2.2 forms the following interactions in the outer site: hydrophobic packing against many non-polar residues W126, G130, M133, L134, F271, F570, and M573, and π-stacking with W532 (Fig. 5A). In addition, C2.2 could potentially form H-bonds with E267, if the sidechain is protonated or a water bridge is present, and with H574 if it moves closer (Fig. 5A). Likewise, C2.36 presents a heterocyclic nitrogen that can potentially form a H-bond with E267, similarly, provided a protonation or water bridge is present (Fig. 5B). In addition, C2.36 forms a T-shaped π-stacking interaction with H574, whose sidechain has rotated 90 degrees (compared to DrOTOP1_apo), presumably to accommodate the interaction (Fig. 5B). Considering other inhibitors discovered from the second round of screening, many contain functional groups like the carbonyl groups of Group 1 molecules and the heterocyclic nitrogen atoms of Group 2 molecules (Supplementary Fig. 3E), that can potentially form similar H-bonds with E267 as C2.2 and C2.36, assuming the binding modes are similar. In the central site, C2.2 binds with the following interactions: hydrophobic packing with residues V201, F271, A274, V278, and A388, π-stacking with F277, and H-bonding with E384 (Fig. 5C).
Each non-aromatic residue was mutated to tryptophan, which was expected to cause steric occlusion. […] This seemed appropriate given the small number of H-bonds in these pockets, the ambiguity of how the inhibitors fit the density, and the prevalence of hydrophobic packing interactions (Fig. 5A–C).
(§1) HEK-293 cells (CRL-1573, ATCC) were cultured in DMEM (Thermofisher 11995073) containing 10% fetal bovine serum (Life Technology 16000044) and Penicillin-Streptomycin (100 I.U./mL) and (100 µg/mL), respectively. Cells were transfected with WT DrOTOP1 or mutant DrOTOP1 channels in 35 mm petri dishes, with ~ 500 ng DNA and 2 μL TransIT-LT1 transfection reagent (Mirus Bio Corporation, Cat # MIR2300) following the manufacturer’s protocol. All constructs were subcloned into a pcDNA3.1 vector that adds an N-terminal fusion tag consisting of an octahistidine tag followed by eGFP, a Gly-Thr-Gly-Thr linker and a 3C protease cleavage site ([…]) followed by WT DrOTOP1, WT mOTOP1, WT hOTOP1, or mutated DrOTOP1. Point mutations were generated via In-Fusion Cloning (Takara) using single-stranded DNA primers generated through IDT and sequence confirmed by Sanger sequencing (GeneWiz).
(§2) Whole-cell patch-clamp recording was performed as previously described[6],[22],[25]. Recordings were made with an Axopatch 200B amplifier, digitized with a Digidata 1322a 16-bit data acquisition system, acquired with pClamp 8.2 and analyzed with Clampfit 10 (Molecular Devices). Recordings were sampled at 5 kHz and filtered at 1 kHz. Patch Pipettes with resistance of […] were fabricated from borosilicate glass, and only recordings with a giga-Ohm seal were used in analysis. Membrane potential was held at −80 mV for the duration of recordings. At the beginning of recordings and between, cells were washed with Tyrode’s solution (see below). Once a giga-Ohm seal was reached, cells were lifted and placed in front of microcapillary tubes controlled by a Fast-Step perfusion system (Warner Instruments) so that extracellular solutions could be rapidly exchanged during each experiment.
Standard Tyrode’s solution consisted of 145 mM NaCl, 5 mM KCl, MgCl2, 2 mM CaCl2, 20 mM D-Glucose, and 10 mM HEPES (for pH 7.4). All other extracellular patch-clamp solutions contained 160 mM NMDG-Cl, 2 mM CaCl2, and the following buffers: 10 mM HEPES (for pH 7.4), 10 mM MES (for pH 6.5-5.5), 10 mM CHES for pH 10, and 10 mM HomoPIPES for (pH 5.0). pH adjusted with HCl. […]

DrOTOP1 = molecular target: T2, DrOTOP1 (Danio rerio, UniProt Q7ZWK8); assay: Whole-cell patch-clamp, inhibition of acid-evoked currents, WT DrOTOP1 expressed in HEK-293 cells; assay type: cell-based, zebrafish (Danio rerio); conditions: for Inhibition of pH 5.5-induced currents, screen 2 / Inhibition of pH 5.5-induced currents, screen 1: 200 µM compound; for Inhibition of pH 5.5-induced currents, screen 2 / inhibition at 200 µM / Inhibition of pH 5.5-induced currents, screen 1: HEK-293 cells expressing DrOTOP1, Vm -80 mV, values of single cells; for inhibition at 200 µM: HEK293, pH 5.5, 200 µM compound; for Inhibition of pH 5.5-induced currents, screen 1: 200 µM
T2 construct: A previously generated codon-optimized full-length DrOTOP1[8]; (UniProt: Q7ZWK8) construct; expressed in transfected cells; host or cells: HEK-293 (CRL-1573, ATCC)
T2 sequence (Q7ZWK8 1-586): T1 sequence (Q7ZWK8 1-586 G130W) with W130G
From the text: The 50 molecules identified were individually tested by whole-cell patch-clamp electrophysiology for effects on DrOTOP1 expressed in human embryonic kidney (HEK)−293 cells. […] This approach enabled us to observe the on- and off-responses of each compound. To quantify the effect of each compound, we compared the current magnitude during compound application immediately before wash-off, to the peak inward current following its removal (Supplementary Fig. 2A).
as §1, §2
Standard Tyrode’s solution consisted of 145 mM NaCl, 5 mM KCl, MgCl2, 2 mM CaCl2, 20 mM D-Glucose, and 10 mM HEPES (for pH 7.4). All other extracellular patch-clamp solutions contained 160 mM NMDG-Cl, 2 mM CaCl2, and the following buffers: 10 mM HEPES (for pH 7.4), 10 mM MES (for pH 6.5-5.5), 10 mM CHES for pH 10, and 10 mM HomoPIPES for (pH 5.0). pH adjusted with HCl. […] The pipette contained intracellular solution made up of 120 mM Cs-aspartate, 15 mM CsCl, 2 mM Mg-ATP, 5 mM EGTA, 2.4 mM CaCl2 (100 nM free Ca^2+), and 10 mM HEPES with a pH of 7.3. All extracellular solution osmolarity was adjusted to 300 mOsm and intracellular osmolarity was adjusted to 290 mOsm.
All data are presented as mean ± SEM unless otherwise noted, and each data point represents an independent replicant. Inhibition of compounds was quantified as ((I2peak-I1)/(I2peak))*100, where I1 is the current immediately before wash-off and I2peak is the maximum recovered current (Supplementary Fig. 2). Hill coefficients were determined by the following equation: Y = Bmax*X^h/(Kd^h + X^h).

[1] = FDA 1-3 = FDA-approved drugs, read-out: Inhibition of pH 5.5-induced currents, screen 2

`Oc1ccc(-c2nnc3n2Cc2ccccc2OC3)cc1` [C2.36] was tested, and the “Wash-off compared to WT” value (DrOTOP1 G130W) was “faster wash-off”, the “Inhibition (Fig. 5N)” value (DrOTOP1 G130W; pH 5.5, 100 µM C2.36 according to legend of Fig. 5M, N, single cells) was “significantly less inhibition” and the “Kinetics and reversibility of inhibition” value (DrOTOP1; WT DrOTOP1, pH 5.5 stimulus) was “uniquely slow off-rate; also recorded: slowly inhibited; also recorded: poorly reversible”.

In the case of `Cc1nc(=NCCCc2ncc[nH]2)c2c([nH]1)COc1ccccc1C2` [C2.51], the “Inhibition of pH 5.5-induced currents, screen 2” value (DrOTOP1; FDA 1-3 = FDA-approved drugs, listed as 51, 200 µM) is reported as 16.6082% and 21.5548% and the inhibition at 200 µM (DrOTOP1; [1]) is reported as 26.3%.

For `Cc1csc(NC(=O)c2nc(C3CC3)n[nH]2)n1` [C38], the “Inhibition of pH 5.5-induced currents, screen 1” value (“Inhibition … screen 1” below) (DrOTOP1) was 0.5534% and 0.7746% and the inhibition at 200 µM (DrOTOP1; read-out: Inhibition of pH 5.5-induced currents, screen 1) was 0.922%.

For `Cc1noc(-c2csc(Cc3ccccc3)n2)n1` [C39], the “Inhibition … screen 1” value (DrOTOP1) was 1.199% and 1.966% and 0.3901%.

`COCc1nc(-c2nc3c([nH]2)CCCNC3=O)no1` [C42] was tested, and the “Inhibition … screen 1” value (DrOTOP1) was 1.242% and 3.465% and 1.504%.

With `Cc1n[nH]c(CNC(=O)c2cnc3ccccc3n2)n1` [C44] the “Inhibition … screen 1” value (DrOTOP1) was 3.035% and 1.397% and 1.665%.

In the case of `CC(=O)O[C@H]1Cc2ccccc2N(C(N)=O)c2ccccc21` [eslicarbazepine acetate, reference compound], the “Inhibition of pH 5.5-induced currents, screen 2” value (DrOTOP1; FDA 1-3 = FDA-approved drugs, listed as FDA 2, 200 µM) is reported as 4.01% and 3.687% and the inhibition at 200 µM (DrOTOP1; [1]) is reported as 3.48%.
